Results from patent US20010047099A1, “4-aminopicolinates and their use as herbicides” (priority 2000, published 2001).

Legend:
[1] = test system: Canada thistle (Cirsium arvense); assay: Range & Pasture Crop Testing (postemergence track sprayer); assay type: in vivo; conditions: Table 10; clover pasture; postemergence
Procedure: (§1) By applying the well-accepted probit analysis as described by J. Berkson in Journal of the […], 48, 565 (1953) and by D. Finney in “Probit Analysis” Cambridge University Press (1952), the above data can be used to calculate GR50 and GR80 values, which are defined as growth reduction factors that correspond to the effective dose of herbicide required to kill or control 50 percent or 80 percent, respectively, of a target plant.
(§2) Rates are calculated based upon 5 doses being applied. The high rate (X), followed by serial dilutions of 1/2×, 1/4×, 1/8× and 1/16×. Compound requirements are based upon the 187 L/ha carrier volume, specifications of the delivery system (Mandel track sprayer) and generating 24 mL of technical spray material to allow for the dilutions and overage in the sprayer. [formula]
(§3) All technical materials were formulated in 97:3 (acetone:DMSO) with 0.25% X-77. The total volume of solvent is maintained at less than 7%. An overhead Mandel track sprayer calibrated to deliver 187 L/ha was used for all treatment applications (postemergence). Picloram was included as a comparison treatment.
(§4) Solutions were applied with a mechanized track-sprayer at the following settings:
(§5) Spray height: 17 inches above top of plants
(§6) This provides an application volume of 187 L/ha.
(§7) Percent weed control (burn down) was evaluated 3 weeks after treatment. Visual control on a 0-100 linear scale was used, with 0 representing no control and 100 representing total control. Burn down ratings were taken for annual and perennial weed species.

[2] = test system: field bindweed (Convolvulus arvensis); assay: as above; assay type: in vivo; conditions: Table 10; clover pasture; postemergence
Procedure: as §1, §2, §3, §4, §5, §6, §7

[3] = test system: White Clover (Trifolium repens); assay: as above; assay type: in vivo; conditions: Table 10
Procedure: as §1, §2, §3, §4, §5, §6, §7

[4] = test system: velvetleaf (Abutilon theophrasti); assay: Preemergence herbicidal activity; assay type: in vivo; conditions: Abutilon theophrasti, 504 h, Table 6 (headed Post-emergent; text: preemergence), after 3 weeks, read-out: % Control ABUTH; for pest or weed control at 560 ppm: rate 560 ppm
Source text: (§8) Seeds of the desired test plant species were planted in a soil matrix prepared by mixing a loam soil (43 percent silt, 19 percent clay, and 38 percent sand, with a pH of about 8.1 and an organic matter content of bout 1.5 percent) and sand in a 70 to 30 ratio. The soil matrix was contained in plastic pots with a surface area of 113 square centimeters. When required to ensure good germination and healthy plants. a fungicide treatment and/or other chemical or physical treatment was applied.
(§9) A weighed amount, determined by the highest rate to be tested, of each test compound was placed in a 20 mL glass vial and was dissolved in 4 mL of a 97:3 v/v (volume/volume) mixture of acetone and dimethyl sulfoxide to obtain concentrated stock solutions. […] The stock solutions obtained were diluted with a 99.9:0.1 mixture of water and Tween® […] surfactant to obtain application solutions of known concentration. The solutions containing the highest concentration to be tested were prepared by diluting 2 mL aliquots of the stock solution with 15 mL of the mixture and lower concentrations were prepared by serial dilution of the stock solution. A 2.5 mL aliquot of each solution of known concentration was sprayed evenly onto the soil surface (113 sq. cm) of each seeded pot using a Cornwall 5.0 mL glass syringe fitted with a TeeJet TN-3 hollow cone nozzle to obtain thorough coverage of the soil in each pot. Control pots were sprayed in the same manner with the aqueous mixture.
(§10) The treated pots and control pots were placed in a greenhouse maintained with an approximate 15 hr photoperiod and temperatures of about 23-29° C. during the day and 22-28° C. during the night. Nutrients and water were added on a regular basis and supplemental lighting was provided with overhead metal halide 1000-Watt lamps as necessary. The water was added by top-irrigation. After 3 weeks the condition of the test plants that germinated and grew as compared with that of the untreated plants that germinated and grew was determined visually and scored on a scale of 0 to 100 percent where 0 corresponds to no injury and 100 corresponds to complete kill or no germination.

[5] = test system: pigweed (Amaranthus retroflexus); assay: Preemergence herbicidal activity; assay type: in vivo; conditions: Amaranthus retroflexus, 504 h, Table 6 (headed Post-emergent; text: preemergence), after 3 weeks, read-out: % Control AMARE; for pest or weed control at 560 ppm: rate 560 ppm
Source text: as §8, §9, §10

[6] = test system: morningglory (Ipomoea hederacea); assay: Preemergence herbicidal activity; assay type: in vivo; conditions: Ipomoea, 504 h, Table 6 (headed Post-emergent; text: preemergence), after 3 weeks, read-out: % Control IPOHE; for pest or weed control at 560 ppm: rate 560 ppm
Source text: as §8, §9, §10

[7] = test system: chickweed (Stellaria media); assay: Postemergence herbicidal activity; assay type: in vivo; conditions: Stellaria media, post-emergence, 336 h, Table 1, visual, after 2 weeks, read-out: Post-emergent % Control STEME; for pest or weed control at 250 ppm: rate 250 ppm; for pest or weed control at 125 ppm: rate 125 ppm
Procedure: (§11) Seeds of the desired test plant species were planted in Grace-Sierra MetroMix® 306 planting mixture, which typically has a pH of 6.0 to 6.8 and an organic matter content of about 30 percent, in plastic pots with a surface area of 64 square centimeters. When required to ensure good germination and healthy plants, a fungicide treatment and/or other chemical or physical treatment was applied. The plants were grown for 7-21 days in a greenhouse with an approximate 15 hr photoperiod which was maintained at about 23-29° C. during the day and 22-28° C. during the night. Nutrients and water were added on a regular basis and supplemental lighting was provided with overhead metal halide 1000-Watt lamps as necessary. The plants were employed for testing when they reached the first or second true leaf stage.
(§12) A weighed amount, determined by the highest rate to be tested, of each test compound was placed in a 20 mL glass vial and was dissolved in 4 mL of a 97:3 v/v (volume/volume) mixture of acetone and dimethyl sulfoxide (DMSO) to obtain concentrated stock solutions. […] The concentrated stock solutions obtained were diluted with an aqueous mixture containing acetone, water, isopropyl alcohol, DMSO, Atplus 411F crop oil concentrate, and Triton X-155 surfactant in a 48.5:39:10:1.5:1.0:0.02 v/v ratio to obtain spray solutions of known concentration. The solutions containing the highest concentration to be tested were prepared by diluting 2 mL aliquots of the stock solution with 13 mL of the mixture and lower concentrations were prepared by serial dilution of the stock solution. Approximately 1.5 mL aliquots of each solution of known concentration were sprayed evenly onto each of the test plant pots using a DeVilbiss atomizer driven by compressed air pressure of 2 to 4 psi ([…]) to obtain thorough coverage of each plant. Control plants were sprayed in the same manner with the aqueous mixture. In this test an application rate of 1 ppm results in the application of approximately 1 g/Ha.
(§13) The treated plants and control plants were placed in a greenhouse as described above and watered by sub-irrigation to prevent wash-off of the test compounds. After 2 weeks the condition of the test plants as compared with that of the untreated plants was determined visually and scored on a scale of 0 to 100 percent where 0 corresponds to no injury and 100 corresponds to complete kill.

[8] = test system: cocklebur (Xanthium strumarium); assay: Postemergence herbicidal activity; assay type: in vivo; conditions: Xanthium strumarium, post-emergence, 336 h, Table 1, visual, after 2 weeks, read-out: Post-emergent % Control XANST; for pest or weed control at 250 ppm: rate 250 ppm; for pest or weed control at 125 ppm: rate 125 ppm
Procedure: as §11, §12, §13

[9] = test system: wild buckwheat (Polygonum convolvulus); assay: Postemergence herbicidal activity; assay type: in vivo; conditions: Fallopia convolvulus, post-emergence, 336 h, Table 1, visual, after 2 weeks, read-out: Post-emergent % Control POLCO; for pest or weed control at 250 ppm: rate 250 ppm; for pest or weed control at 125 ppm: rate 125 ppm
Procedure: as §11, §12, §13

Structure (SMILES)	melting point	pest or weed control at 250 ppm [7]	pest or weed control at 250 ppm [8]	pest or weed control at 250 ppm [9]	pest or weed control at 560 ppm [4]	pest or weed control at 560 ppm [5]	pest or weed control at 560 ppm [6]	pest or weed control at 125 ppm [7]	pest or weed control at 125 ppm [8]	pest or weed control at 125 ppm [9]	further results
CCCCOC(=O)c1nc(Cl)cc(N)c1Cl [Compound 7, n-butyl 4-amino-3,6-dichloropyridine-2-carboxylate]	78 to 79 °C	100%	100%	100%							GR80 CIRAR [1]: 17.3 g/ha; GR80 CONAR [2]: 116.6 g/ha; GR20 TRFRE [3]: 15.3 g/ha; pest or weed control at 280 ppm ([4]; rate 280 ppm): 100%; pest or weed control at 280 ppm ([5]; rate 280 ppm): 100%; pest or weed control at 280 ppm ([6]; rate 280 ppm): 100%
Nc1c(Cl)c(C(=O)O)nc(Cl)c1C(F)(F)F [Compound 21, 4-Amino-3,6-dichloro-5-trifluoromethylpyridine-2-carboxylic acid]	173 °C	20%	70%	20%	80%	80%	90%				
O=C(O)c1nc(Cl)cc(N2CCCC2)c1Cl [Compound 36, 4-pyrrolidino-3,6-dichloropyridine-2-carboxylic acid]	153 to 155 °C				95%	80%	80%	40%	50%	80%	
COc1ccc(Oc2cc(N)c(Cl)c(C(=O)O)n2)cc1 [Compound 49, 4-amino-3-chloro-6-(4-methoxyphenoxy)-pyridine-2-carboxylic acid]	174 °C	0%	60%	70%							pest or weed control at 70 ppm ([4]; rate 70 ppm): 0%; pest or weed control at 70 ppm ([5]; rate 70 ppm): 0%; pest or weed control at 70 ppm ([6]; rate 70 ppm): 0%
Nc1cc(Cl)nc(C(=O)O)c1Br [Compound 44, 4-Amino-3-bromo-6-chloropyridine-2-carboxylic acid]	175 °C (dec.)				100%	100%	100%	90%	90%	95%	
CC(C)COc1nc(C(=O)O)c(Cl)c(N)c1Cl [Compound 56, 4-Amino-3,5-dichloro-6-(2-methylpropoxy)pyridine-2-carboxylic acid]	104 to 106 °C	30%	85%	20%	40%	0%	0%				
NC(=O)c1nc(Cl)cc(N)c1Cl [Compound 11, 4-Amino-3,6-dichloropyridine-2-carboxamide]	240 to 241 °C				85%	0%	85%	85%	80%	95%	
Nc1c(Cl)c(C(=O)O)nc(C(F)(F)F)c1Cl [Compound 45, 4-Amino-3,5-dichloro-6-trifluoromethylpyridine-2-carboxylic acid]	178 °C (dec.)	0%	90%	80%							pest or weed control at 125 ppm ([4]; rate 125 ppm): 90%; pest or weed control at 125 ppm ([5]; rate 125 ppm): 100%; pest or weed control at 125 ppm ([6]; rate 125 ppm): 100%
Cc1cccc(Oc2cc(N)c(Cl)c(C(=O)O)n2)c1 [Compound 52, 4-amino-3-chloro-6-(3-methylphenoxy)-pyridine-2-carboxylic acid]	169 °C	20%	70%	90%	50%	20%	70%				
